Assays:
[1] = tested on: Pseudomonas aeruginosa ATCC27583; test: MIC by agar plate dilution method; type: cell-based; details: P. aeruginosa, 37° C. 24 hours
Procedure: (§1) MIC value was determined by an agar plate dilution method according to the Law of Japanese Society of Chemotherapy. In some detail, a bacteria solution in stationary state which had been adjusted with a nutrient broth such that the concentration of bacterial suspension reached 10^6 cell/ml was added to agar culture media containing chemical solutions having concentrations which vary in two stages where it was then allowed to stand at a temperature of 37° C. for 24 hours for culture. The bacteria solution was then examined to see if the proliferation of bacteria occurred. Thus, MIC was determined.
(§2) The following three kinds of bacteria were used as sample bacteria:
Pseudomonas aeruginosa ATCC27583 (P. auruginosa); and […]

[2] = Interaction with eye drop components (visual transparency); type: physicochemical; details: for Results (transparency of neutralized solution): in 1% sodium chloride solution
Procedure: Eye drop components and the preservative of the invention were dissolved in a 1% sodium chloride solution. The solution was then neutralized with a proper amount of diluted hydrochloric acid or sodium hydroxide. The neutralized solution thus obtained was then visually observed for transparency. Chondroitin sodium sulfate (hereinafter abbreviated as “SKA”), sodium hyaluronate (hereinafter abbreviated as “SHA”), sodium cromoglicate (hereinafter abbreviated as “SCA”), sodium dimethylisopropylazulenesulfonate (hereinafter abbreviated as “SDPA”), and flavin-adenine dinucleotide (hereinafter abbreviated as “FA”) were used as the eye drop components. 4BAMP-6C (Example 1) and benzalkonium chloride (Comparative Example 1) were used as test samples of preservative.

[3] = tested on: A. niger; test: Anti-septic power test (USP XX); type: cell-based, Aspergillus niger; details: test sample 0.002 wt %
Procedure: (§3) Solutions prepared according to the formulation set forth in Tables 10 and 11 below were subjected to anti-septic power test according to the method defined in Pharmacopoeia of the United States XX, 873 (1980). The solutions thus tested were then observed for anti-septic power after 1 hour, 4 hours, 24 hours, 7 days, 14 days, 21 days and 28 days. As test microorganisms, E. coli, P. auru. and S. Aureus were used as bacteria and A. niger and C. albicans were used as fungi. 4BAMP-6C and benzalkonium chloride were used as test samples.

[4] = tested on: Pseudomonas aeruginosa ATCC 27583; test: Minimum bactericidal concentration (MBC) against bacteria; type: cell-based; details: contact 30° C. 30 minutes, culture 37° C. 24 hours
Procedure: (§4) A bacteria solution in the initial stage of logarithmic productive phase which had been adjusted with a nutrient broth according to an ordinary sterilized water dilution method such that the concentration of bacterial suspension reached 10^6 cell/ml was brought into contact with chemical solutions having concentrations which vary stepwise at a temperature of 30° C. for 30 minutes, and then transplanted to a nutrient broth where it was then allowed to stand at a temperature of 37° C. for 24 hours for culture. The nutrient broth was then examined to see if the proliferation of bacteria occurred. Thus, MBC was determined.
(§5) Five kinds of gram-negative bacteria and four kinds of gram-positive bacteria were used as sample bacteria.
(§6) BAMP-6 (Example 12), BAMD-6,8 (Example 13), BAMT-6 (Example 17) and benzalkonium chloride (Comparative Example 1) were determined for MBC value against 5 kinds of gram-negative bacteria and 4 kinds of gram-positive bacteria in the same manner as in Test Example 1.

[5] = tested on: Bacillus cereus IFO 3001; test: as above; type: cell-based; details: contact 30° C. 30 minutes, culture 37° C. 24 hours
Procedure: as §4, §5, §6

[6] = tested on: Bacillus subtilis IFO 3134; test: as above; type: cell-based; details: contact 30° C. 30 minutes, culture 37° C. 24 hours
Procedure: as §4, §5, §6

[7] = tested on: Proteus rettgeri NIT 96; test: as above; type: cell-based; details: contact 30° C. 30 minutes, culture 37° C. 24 hours
Procedure: as §4, §5, §6

[8] = tested on: Staphylococcus aureus IFO 12732; test: as above; type: cell-based; details: contact 30° C. 30 minutes, culture 37° C. 24 hours
Procedure: as §4, §5, §6

[9] = tested on: Escherichia coli K12 OUT 8401; test: as above; type: cell-based; details: contact 30° C. 30 minutes, culture 37° C. 24 hours
Procedure: as §4, §5, §6

[10] = tested on: Klebsiella pneumoniae ATCC 13883; test: as above; type: cell-based; details: contact 30° C. 30 minutes, culture 37° C. 24 hours
Procedure: as §4, §5, §6

[11] = tested on: Escherichia coli K12 W 3110; test: as above; type: cell-based; details: contact 30° C. 30 minutes, culture 37° C. 24 hours
Procedure: as §4, §5, §6

[12] = tested on: Staphylococcus aureus IFO 12732; test: MIC by agar plate dilution method; type: cell-based; details: S. aureus, 37° C. 24 hours
Procedure: as §1, §2
Staphylococcus aureus IFO 12732 (S. aureus)

[13] = tested on: C. albicans; test: Anti-septic power test (USP XX); type: cell-based, Candida albicans; details: test sample 0.002 wt %
Procedure: as §3

[14] = tested on: S. aureus; test: Anti-septic power test (USP XX); type: cell-based, Staphylococcus aureus; details: test sample 0.002 wt %
Procedure: as §3

[15] = tested on: E. coli; test: Anti-septic power test (USP XX); type: cell-based, Escherichia coli; details: test sample 0.002 wt %
Procedure: as §3

[16] = tested on: Candida albicans ATCC10231; test: Minimum development inhibiting concentration (MIC) against fungi; type: cell-based; details: C. albicans; spore solution, 27° C. 1 week
Procedure: (§7) A sample fungus which had been pre-cultured was diluted with a wetting agent-containing sterilized water according to an ordinary broth dilution method to prepare a spore solution. 1 ml of the spore solution was then mixed with 1 ml of each of chemical solutions having concentrations which vary stepwise. The mixture was then cultured at a temperature of 27° C. in an incubator for 1 week. The culture was then examined for turbidity to see if the proliferation of fungus occurred. The minimum concentration at which no turbidity occurs was defined to be MIC.
(§8) Aspergillus niger IFO 6431 (A. niger) and Candida albicans ATCC10231 (C. albicans) were used as sample microorganisms.

[17] = tested on: Aspergillus niger IFO 6431; test: as above; type: cell-based; details: A. niger; spore solution, 27° C. 1 week
Procedure: as §7, §8

[18] = Formulation 1 (chondroitin sodium sulfate 1 wt %)

Row | Substance | MIC [1] [ppm] | time at which the desired anti-septic effect was confirmed [3, 18] [days] | time at which the desired anti-septic effect was confirmed ([3]; Formulation 2 (taurin 1 wt %)) [days] | MBC [4] [ppm] | MBC [5] [ppm] | MBC [6] [ppm] | MBC [7] [ppm] | MBC [8] [ppm] | MBC [9] [ppm] | MBC [10] [ppm] | MBC [11] [ppm] | MIC [12] [ppm] | time at which the desired anti-septic effect was confirmed [13, 18] [days] | time at which the desired anti-septic effect was confirmed ([13]; Formulation 2 (taurin 1 wt %)) [days] | time at which the desired anti-septic effect was confirmed [14, 18] | time at which the desired anti-septic effect was confirmed ([14]; Formulation 2 (taurin 1 wt %)) | time at which the desired anti-septic effect was confirmed [15, 18] | time at which the desired anti-septic effect was confirmed ([15]; Formulation 2 (taurin 1 wt %)) | MIC [16] [ppm] | MIC [17] [ppm] | also measured
1 | 1,4-bis(N,N-dihexyl-N-methylammoniomethyl)phenylene dichloride [Example 4BAMP-6C] | <2 | 7 | 14 | 16 | 4 | <2 | <2 | <2 | 8 | <2 | 16 | <2 | 7 | 7 | 1 h | 1 h | 1 h | 1 h | 4 | 16 | Results (transparency of neutralized solution) ([2]; FA 0.1%, 4BAMP-6C 0.1%): Transparent; Results (transparency of neutralized solution) ([2]; SCA 3%, 4BAMP-6C 0.1%): Transparent; Results (transparency of neutralized solution) ([2]; SDPA 0.05%, 4BAMP-6C 0.1%): Transparent; Results (transparency of neutralized solution) ([2]; SHA 0.2%, 4BAMP-6C 0.1%): Transparent; Results (transparency of neutralized solution) ([2]; SKA 3%, 4BAMP-6C 0.1%): Transparent
2 | benzalkonium chloride [reference compound] | 8 | 28 | 28 | 32 | 4 | 4 | 16 | <2 | 8 | 8 | 16 | 16 | 21 | 21 | 4 hrs. hr. | 4 hrs. hr. | 24 hrs. hr. | 24 hrs. hr. | 16 | 32 | Results (transparency of neutralized solution) ([2]; FA 0.1%, benzalkonium chloride 0.01%): Clouded; Results (transparency of neutralized solution) ([2]; SCA 3%, benzalkonium chloride 0.01%): Clouded; Results (transparency of neutralized solution) ([2]; SDPA 0.05%, benzalkonium chloride 0.01%): Clouded; Results (transparency of neutralized solution) ([2]; SHA 0.2%, benzalkonium chloride 0.01%): Clouded; Results (transparency of neutralized solution) ([2]; SKA 3%, benzalkonium chloride 0.01%): Clouded; transparency of solutions with eye drop components ([2]; summary of Table 9): slightly opaque

— US6664224B2, “Quaternary ammonium salt and process for the preparation thereof” (priority 2000, dated 2003)
